Entries after “also recorded” stand apart in the source; their conditions may differ.
Columns and labels:
OPN1SW [1] = biological target: T1, OPN1SW (Mus musculus, UniProt P51491); test: TANGO assay (beta-arrestin recruitment, luciferase reporter) in HTLA cells, OPN1SW; assay type: cell-based; settings: 4 hours
T1 construct: expressed in transfected cells; host or cells: HTLA cells (HEK293 line with tTA-dependent luciferase reporter and beta-arrestin2-TEV fusion)
T1 sequence (P51491 1-346): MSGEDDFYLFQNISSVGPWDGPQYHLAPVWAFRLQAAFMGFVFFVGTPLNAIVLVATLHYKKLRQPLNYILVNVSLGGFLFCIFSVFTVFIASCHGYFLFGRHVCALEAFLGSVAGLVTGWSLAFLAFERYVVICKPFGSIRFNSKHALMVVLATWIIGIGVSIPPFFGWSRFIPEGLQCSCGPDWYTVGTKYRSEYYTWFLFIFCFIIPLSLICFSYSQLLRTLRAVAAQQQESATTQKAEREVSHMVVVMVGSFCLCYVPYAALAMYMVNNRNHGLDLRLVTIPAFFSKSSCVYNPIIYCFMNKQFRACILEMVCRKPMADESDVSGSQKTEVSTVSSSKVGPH
Source text: (§1) For example, in one implementation the chemosensory opsin activation detection element comprises a TANGO assay (Transcriptional Activation Following Arrestin Translocation), as known in the art, for example, as described by Kroeze et al., 2015. PRESTO-Tango as an open-source resource for interrogation the druggable human GPCRome. Nat Struct Mol Biol 22, 362-369. In the TANGO systems of the invention, a cell is engineered to express a chemosensory opsin in the form of a fusion protein, wherein the opsin fusion protein comprises an optional membrane trafficking signal (e.g. HA), an optional FLAG tag or like epitope to facilitate detection, and a transcriptional activator which induces the expression of a reporter gene, such as luciferase, wherein the transcriptional activator is joined to an intracellular portion of the opsin, for example, the […], by a cleavage sequence. The cells of the TANGO system are further engineered to express a second fusion protein comprising a beta-arrestin fused to a protease, for example, a TEV protease, wherein the protease is capable of cleaving the fusion protein at the cleavage site. The cells of the TANGO system are further engineered to express a reporter protein, e.g. luciferase, under the control of a transcriptional activator, for example, tetracycline-controlled transactivaor (tTA). Ligand binding to the opsin deployed in the TANGO system triggers a conformational change in the opsin that recruits the beta arrestin-protease fusion protein to the opsin, where proximity of the protease induces cleavage of the transcriptional activator, which trafficks to the nucleus and induces the expression of the reporter gene. The TANGO system advantageously allows direct quantification of opsin activation, independent of g protein activity.
(§2) Human transcriptomics data was mined to identify putative taste receptor proteins. […] However, the role of these opsins in taste perception has not been previously explored. TANGO detection elements employing each of these opsins, in both human and mouse isoforms, were created in HTLA cells (a HEK293 cell line stably expressing a tTA-dependent luciferase reporter and a β-arrestin2-TEV fusion gene), based on protocols in Kroeze et al., 2015. PRESTO-Tango as an open-source resource for interrogation of the druggable human GPCRome. Nat Struct Mol Biol 22, 362-369.
(§3) In the TANGO assay, the mouse opsin coding sequence with an N-terminal FLAG tag was synthesized. The construct was cloned into a TANGO vector (Addgene, Waterton MA) at the ClaI site (FLAG::opsin). The HTLA cells were transfected in a 6-well format with LIPOFECTAMINE 2000™ (Thermo Fisher Scientific, Inc, Waltham MA, USA) according to the manufacturer's instructions. 6-8 hours post transfection cells weret split 1:3 and the media was switched to DMEM+ 2.5% fetal bovine serum (Thermo Fisher Scientific Inc., Waltham MA, USA). Cells were allowed to grow for 48 hours before splitting the cells onto poly-L-lysine-coated 96-well clear, flat bottom white polystyrene plates in serum-free media. The next day, chemical solutions diluted in TANGO assay buffer (20 mM HEPES, 1× HBSS, pH 7.40) were added to the cells. After 4 hours, the medium and drug solutions were removed and replaced with […] per well of BRIGHTGLO™ reagent (Promega Corporation, Madison WI) diluted 20-fold with TANGO assay buffer. Plates were incubated for 20 minutes at room temperature in the dark before measuring luminescence with a plate reader (Molecular Devices, iD3). The normalized response was calculated using following formula: RLU (relative luminescence units)=test compound RLU−average vehicle control RLU.

OPN1SW [2] = biological target: T2, OPN1SW (Homo sapiens, UniProt P03999); test: Calcium flux GPCR activation assay with Fluo-8 dye, opsin-expressing HEK293T cells, OPN1SW; assay type: cell-based; settings: Fluo-8 calcium flux, data not shown
T2 construct: expressed in transfected cells; host or cells: HEK293T
T2 sequence (P03999 1-345): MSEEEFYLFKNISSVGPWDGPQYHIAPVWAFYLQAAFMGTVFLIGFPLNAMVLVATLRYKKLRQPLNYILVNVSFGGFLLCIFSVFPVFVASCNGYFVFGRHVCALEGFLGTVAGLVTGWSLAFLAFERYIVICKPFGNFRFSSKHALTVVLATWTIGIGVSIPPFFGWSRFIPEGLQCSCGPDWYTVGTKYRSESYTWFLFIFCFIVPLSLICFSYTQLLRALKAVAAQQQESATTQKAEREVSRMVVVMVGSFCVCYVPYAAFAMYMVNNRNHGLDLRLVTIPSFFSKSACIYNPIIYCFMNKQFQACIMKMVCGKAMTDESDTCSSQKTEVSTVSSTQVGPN
Protocol: (§4) These foregoing TANTO results were further confirmed using a second, a calcium flux GPCR activation assay employing Fluo-8 dye, as follows. For this intracellular Ca^2+ measurement, opsin-expressing HEK293T cells were seeded onto 96-well plates (4×10^4 cells per well) in 100 μl of culture medium with reduced serum contents (0.5% of FBS) per well and incubated overnight under standard culture conditions. [Ca2+]i level was assessed the next day after stimulation with bitter compounds used at a different concentration with the SCREEN QUEST Fluo-8 No Wash Calcium Assay Kit (AAT Bioquest, Inc., Sunnyvale, CA, USA) according to the supplier's protocol. Calcium flux was monitored simultaneously by the change in fluorescence (Ex/Em=490/520 nm) following stimulation and with respect to the background fluorescence. [Ca^2+]i was monitored for a period of three minutes, starting before the addition of compounds to the wells and continuing during measurement of the fluorescent signal following cells' stimulation. The obtained fluorescence reads were normalized to the results obtained after stimulation of the cells with the compound solvent.

OPN3 [3] = biological target: T3, OPN3 (Mus musculus, UniProt Q9WUK7); test: TANGO assay (beta-arrestin recruitment, luciferase reporter) in HTLA cells, OPN3; assay type: cell-based; settings: 4 hours
T3 construct: expressed in transfected cells; host or cells: HTLA cells (HEK293 line with tTA-dependent luciferase reporter and beta-arrestin2-TEV fusion)
T3 sequence (Q9WUK7 whole entry, the tested form may be a part): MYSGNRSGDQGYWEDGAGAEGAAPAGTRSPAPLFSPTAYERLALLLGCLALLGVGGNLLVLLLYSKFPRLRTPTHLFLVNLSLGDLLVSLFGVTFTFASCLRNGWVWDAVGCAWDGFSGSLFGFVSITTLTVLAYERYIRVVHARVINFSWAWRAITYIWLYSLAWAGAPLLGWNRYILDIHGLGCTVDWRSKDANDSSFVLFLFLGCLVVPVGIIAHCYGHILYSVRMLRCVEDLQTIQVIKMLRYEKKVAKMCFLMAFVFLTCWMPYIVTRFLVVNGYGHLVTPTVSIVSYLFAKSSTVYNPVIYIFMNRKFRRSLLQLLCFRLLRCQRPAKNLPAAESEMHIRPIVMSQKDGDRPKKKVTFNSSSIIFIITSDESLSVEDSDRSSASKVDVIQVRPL
Source text: as §1, §2, §3

OPN3 [4] = biological target: T4, OPN3 (Homo sapiens, UniProt Q9H1Y3); test: Calcium flux GPCR activation assay with Fluo-8 dye, opsin-expressing HEK293T cells, OPN3; assay type: cell-based; settings: Fluo-8 calcium flux, data not shown
T4 construct: expressed in transfected cells; host or cells: HEK293T
T4 sequence (Q9H1Y3 whole entry): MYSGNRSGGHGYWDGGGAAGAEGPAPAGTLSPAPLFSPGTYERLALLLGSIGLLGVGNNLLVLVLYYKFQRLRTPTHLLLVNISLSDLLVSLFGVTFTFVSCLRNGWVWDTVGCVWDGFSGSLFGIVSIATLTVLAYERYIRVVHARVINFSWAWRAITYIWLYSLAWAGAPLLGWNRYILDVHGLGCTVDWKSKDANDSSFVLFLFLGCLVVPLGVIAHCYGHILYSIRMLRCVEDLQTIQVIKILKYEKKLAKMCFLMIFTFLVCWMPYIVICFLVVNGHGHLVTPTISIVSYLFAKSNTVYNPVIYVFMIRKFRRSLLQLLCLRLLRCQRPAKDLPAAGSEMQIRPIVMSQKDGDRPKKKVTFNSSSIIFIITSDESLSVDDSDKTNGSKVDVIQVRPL
Protocol: as §4

OPN3 knockout mice = test: Mouse brief-access taste assay (lickometer), OPN3 knockout mice compared to wild type; assay type: in vivo; settings: water restricted
Protocol: Knockout mice were obtained for OPN1SW and OPN3. Two independent OPN3 knockout mice lines were tested for reaction to naringin by a mouse taste preference assay. A Lickometer device (MS-160, Di Log Instruments, Inc.,Tallahassee, FL, USA) was used to train mice and then measure their licking responses to different tastants in brief-access trials. On a given trial, each sipper tube was filled with a solution and made available to a mouse via a small port that opened to a metal/plexiglass chamber housing the animal. The mouse chamber of the lickometer was modified for these studies by adding a plexiglass barrier that restricted the free movement of animals to an approximate 10 by 15 cm area facing the fluid access port. A computer running software that communicated with the lickometer recorded tongue contacts with the metal tip of the sipper tube during licking and the time intervals (precision=1 ms) between consecutive licks (inter-lick intervals). The amount of time that the sipper tube was available through the access port could be programmed and was controlled by the opening of a normally closed, computer-actuated shutter. This feature facilitated presentation of solutions to a mouse for only a few seconds to support measurements of brief-access licking behavior. By indexing initial licking responses to stimuli over short periods, brief-access procedures intend to focus on oral sensory influences and avoid any post-ingestive effect. Groups of three to four mice were run in these studies at one time. Groups always included equal numbers of mutant and wild-type mice to control for temporal factors.
Training. Mice were restricted from drinking water for 20-22 hours prior to the onset of training. During training, experimentally naive mice learned to receive fluid in the lickometer over a 3-day period. On the first and second day of training, mice were given 30 minutes free access to a single sipper tube of water to familiarize them with accessing fluid in the lickometer device. Each 30 minute period began when the mouse made its first lick on the sipper tube; mice were allowed 30 minutes to make their first lick. On the third day of training, mice were presented with 10 second presentations (i.e., trials) of water to familiarize them with receiving and consuming fluid under a brief-access procedure in the lickometer. On each trial, the shutter that blocked access to the sipper tube was opened and mice were given 10 seconds to lick, and lick data were recorded by the lickometer computer. […]
Testing. […] For studies, individual Opn3KO, Opn1swKO, Opn4KO, Opn5KO and wild-type mice were evaluated for brief-access licking responses with different agonists. […]

Compound: O=c1c(-c2ccc(O)cc2)coc2cc(O)cc(O)c12 [genistein]
- activation of OPN1SW, fold-change from baseline luciferase signal vs. log concentration of tastant (OPN1SW [1]): activated
- activation of OPN1SW, fold-change from baseline luciferase signal vs. log concentration of tastant (OPN1SW [1]; listed as genestein): activation of OPN1SW
- activation of calcium dye OPN1SW detection elements (OPN1SW [2]): significantly activated in a concentration dependent manner

Compound: N#C[C@H](O[C@@H]1O[C@H](CO[C@@H]2O[C@H](CO)[C@@H](O)[C@H](O)[C@H]2O)[C@@H](O)[C@H](O)[C@H]1O)c1ccccc1 [amygdalin]
- activation of OPN3, fold-change from baseline luciferase signal vs. log concentration of tastant (OPN3 [3]): activation of OPN3; also recorded: activated
- activation of calcium dye OPN3 detection elements (OPN3 [4]): significantly activated in a concentration dependent manner

Compound: OC[C@H]1O[C@@H](Oc2ccc(O)cc2)[C@H](O)[C@@H](O)[C@@H]1O [arbutin]
- activation of OPN3, fold-change from baseline luciferase signal vs. log concentration of tastant (OPN3 [3]): activation of OPN3; also recorded: activated
- activation of calcium dye OPN3 detection elements (OPN3 [4]): significantly activated in a concentration dependent manner

Compound: COc1ccc2c(c1OC)C(=O)O[C@@H]2[C@H]1c2c(cc3c(c2OC)OCO3)CCN1C [noscapine]
- activation of OPN3, fold-change from baseline luciferase signal vs. log concentration of tastant (OPN3 [3]): activation of OPN3; also recorded: activated
- activation of calcium dye OPN3 detection elements (OPN3 [4]): significantly activated in a concentration dependent manner

Compound: O=C(O[C@@H]1Cc2c(O)cc(O)cc2O[C@@H]1c1cc(O)c(O)c(O)c1)c1cc(O)c(O)c(O)c1 [epigallocatechin gallate]
- activation of OPN3, fold-change from baseline luciferase signal vs. log concentration of tastant (OPN3 [3]): activation of OPN3

Compound: O=c1c(O)c(-c2ccc(O)c(O)c2)oc2cc(O)cc(O)c12 [quercetin]
- activation of OPN3, fold-change from baseline luciferase signal vs. log concentration of tastant (OPN3 [3]): activated OPN3; also recorded: activation of OPN3
- aversion to the bitter flavor (lick ratio), OPN3 knockout mice compared to wild type mice (OPN3 knockout mice): reduced aversion

Compound: CC1=CC(=O)[N-]S(=O)(=O)O1.[K+] [asulfame potassium]
- activation of OPN3, fold-change from baseline luciferase signal vs. log concentration of tastant (OPN3 [3]): activation of OPN3
- activation of OPN1SW, fold-change from baseline luciferase signal vs. log concentration of tastant (OPN1SW [1]): activation of OPN1SW

Compound: OC[C@H]1O[C@@H](Oc2ccccc2)[C@H](O)[C@@H](O)[C@@H]1O [phe-β-Glu, Phenyl-β-D-glucopyranoside]
- activation of OPN3, fold-change from baseline luciferase signal vs. log concentration of tastant (OPN3 [3]): activated
- activation of OPN3, fold-change from baseline luciferase signal vs. log concentration of tastant (OPN3 [3]; listed as Phenyl-β-D-glucopyranoside): activation of OPN3
- activation of calcium dye OPN3 detection elements (OPN3 [4]): significantly activated in a concentration dependent manner

Compound: Cn1c(=O)c2[nH]cnc2n(C)c1=O [theophylline]
- activation of OPN1SW, fold-change from baseline luciferase signal vs. log concentration of tastant (OPN1SW [1]): activation of OPN1SW; also recorded: activated
- activation of calcium dye OPN1SW detection elements (OPN1SW [2]): significantly activated in a concentration dependent manner

Compound: Cn1cnc2c1c(=O)[nH]c(=O)n2C [theobromine]
- activation of OPN1SW, fold-change from baseline luciferase signal vs. log concentration of tastant (OPN1SW [1]): activated; also recorded: activation of OPN1SW
- activation of calcium dye OPN1SW detection elements (OPN1SW [2]): significantly activated in a concentration dependent manner

Compound: O=c1c(O)c(-c2cc(O)c(O)c(O)c2)oc2cc(O)cc(O)c12 [myricetin]
- activation of OPN3, fold-change from baseline luciferase signal vs. log concentration of tastant (OPN3 [3]): activation of OPN3

Compound: Oc1cc(O)c2c(c1)O[C@H](c1cc(O)c(O)c(O)c1)[C@H](O)C2 [Epigallocatechin]
- activation of OPN3, fold-change from baseline luciferase signal vs. log concentration of tastant (OPN3 [3]): activated OPN3
- aversion to the bitter flavor (lick ratio), OPN3 knockout mice compared to wild type mice (OPN3 knockout mice): reduced aversion

Compound: catechin
- activation of OPN3, fold-change from baseline luciferase signal vs. log concentration of tastant (OPN3 [3]): activated OPN3; also recorded: activation of OPN3
- aversion to the bitter flavor (lick ratio), OPN3 knockout mice compared to wild type mice (OPN3 knockout mice): reduced aversion

Reference: patent publication US20240142474A1, “Opsins as Chemosensory Receptors and Related Methods” (The Regents of the University of California, priority 2021, published 2024)
